The text below walks through data of US8450320B2, “Pyrrolopyrazinone inhibitors of kinases” (AbbVie Inc., priority 2010, dated 2013).

pKi: −log10 of the molar value.

For this test, the target named is T1, Cdc7 (BEV coexpressed huCDC7/DBF4) (Homo sapiens, UniProt O00311).
T1 construct: made in house; host or cells: BEV (baculovirus expression vector)
T1 sequence (O00311 whole entry): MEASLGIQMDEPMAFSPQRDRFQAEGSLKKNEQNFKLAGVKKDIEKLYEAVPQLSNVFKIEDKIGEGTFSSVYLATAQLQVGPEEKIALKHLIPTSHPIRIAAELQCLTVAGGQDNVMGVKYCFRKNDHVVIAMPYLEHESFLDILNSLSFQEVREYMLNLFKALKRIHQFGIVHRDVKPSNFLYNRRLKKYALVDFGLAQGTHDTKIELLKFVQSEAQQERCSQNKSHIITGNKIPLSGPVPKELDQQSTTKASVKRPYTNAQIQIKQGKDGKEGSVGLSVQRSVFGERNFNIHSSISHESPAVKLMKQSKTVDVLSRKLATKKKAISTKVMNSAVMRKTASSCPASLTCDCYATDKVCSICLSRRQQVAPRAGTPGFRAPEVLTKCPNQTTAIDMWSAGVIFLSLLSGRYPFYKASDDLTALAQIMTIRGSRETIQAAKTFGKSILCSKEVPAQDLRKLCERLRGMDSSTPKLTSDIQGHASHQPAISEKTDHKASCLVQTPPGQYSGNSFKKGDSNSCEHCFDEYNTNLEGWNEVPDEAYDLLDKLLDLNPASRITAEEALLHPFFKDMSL
T1 sequence (Q9UBU7 whole entry partner): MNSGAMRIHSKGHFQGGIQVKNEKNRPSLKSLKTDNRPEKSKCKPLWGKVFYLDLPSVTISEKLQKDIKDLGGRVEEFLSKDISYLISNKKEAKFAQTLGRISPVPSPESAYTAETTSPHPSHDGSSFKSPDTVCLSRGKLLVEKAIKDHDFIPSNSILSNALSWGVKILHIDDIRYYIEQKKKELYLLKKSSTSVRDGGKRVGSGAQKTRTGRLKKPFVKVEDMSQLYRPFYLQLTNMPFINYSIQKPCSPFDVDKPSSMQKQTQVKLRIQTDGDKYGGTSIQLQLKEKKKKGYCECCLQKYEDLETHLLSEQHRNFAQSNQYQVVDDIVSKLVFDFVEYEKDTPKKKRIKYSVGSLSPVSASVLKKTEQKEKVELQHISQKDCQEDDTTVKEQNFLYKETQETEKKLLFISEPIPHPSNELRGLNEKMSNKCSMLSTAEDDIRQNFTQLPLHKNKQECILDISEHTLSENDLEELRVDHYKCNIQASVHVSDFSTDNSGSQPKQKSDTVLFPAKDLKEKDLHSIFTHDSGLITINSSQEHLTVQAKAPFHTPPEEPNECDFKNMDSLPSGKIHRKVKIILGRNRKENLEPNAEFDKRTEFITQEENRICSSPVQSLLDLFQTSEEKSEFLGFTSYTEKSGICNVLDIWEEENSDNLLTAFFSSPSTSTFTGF
As to the kind of experiment: Cdc7 enzyme inhibition assay ([33P]-ATP, biotinylated peptide substrate, FlashPlate). In kind it is biochemical. To be noted: Ki generated from IC50 assuming ATP-competitive inhibition; 1 μM ATP, apparent ATP Km 0.7 μM. As for the experimental part:
This example describes the assays that may be used to identify compounds having kinase activity.
Cdc7 (BEV coexpressed huCDC7/DBF4) is prepared internally. Cdc7 assays are conducted as follows with final concentrations as listed. In 384-well v-bottom polypropylene plates, 6 μL compound (2% DMSO), is mixed with 6 μL of Cdc7 (2 ug/mL), and Jerini peptide substrate A-All (biotin-C6linker-TPSDSLIYDDGLS) (2 μM), followed by immediate initiation with 6 μL […] (1 μM, 20 mCi/μmol) using a reaction buffer comprising 25 mM HEPES, pH 7.5, 1 mM DTT, 10 mM MgCl2, 100 μM Na3VO4, 0.075 mg/ml Triton X-100. Reactions are quenched after 1 hr by the addition of 90 μL stop buffer (50 mM EDTA, 2M NaCl). 85 μL of the stopped reactions are transferred to 384-well streptavidin-coated plates (FlashPlate Plus, Perkin Elmer), incubated 30 minutes at room temperature and washed 3 times with 0.05% Tween-20/PBS using an ELX-405 automated plate washer (BioTek), and counted on a TopCount Scintillation Plate Reader (Packard). IC50 values are determined via non-linear regression fitting of enzyme inhibition data and corresponding Ki values are generated assuming ATP-competitive (equilibrium) inhibition and using the experimentally determined apparent ATP Km of 0.7 μM (as determined using the above assay condition, but varying ATP).
Table 1 depicts enzyme inhibition data (Ki) for exemplary compounds. In Table 1, “A” represents a Ki of less than 10 nM, “B” represents a Ki of between 10 nM and 100 nM, and “C” represents a Ki of greater than 100 nM.
On to `N#Cc1cc(Cc2c[nH]c(=O)c3cc(-c4ccncc4)cn23)ccc1F` [Example 1, 2-fluoro-5-{[1-oxo-7-(pyridin-4-yl)-1,2-dihydropyrrolo[1,2-a]pyrazin-4-yl]methyl}benzonitrile], for which the pKi was over 8.00.

For `N#Cc1cc(Cc2c[nH]c(=O)c3cc(-c4c[nH]c5ncccc45)cn23)ccc1F` [Example 2, 2-fluoro-5-{[1-oxo-7-(1H-pyrrolo[2,3-b]pyridin-3-yl)-1,2-dihydropyrrolo[1,2-a]pyrazin-4-yl]methyl}benzonitrile], the pKi was over 8.00.

On to `O=C(O)c1cc(Cc2c[nH]c(=O)c3cc(-c4c[nH]c5ncccc45)cn23)ccc1F` [Example 3, 2-fluoro-5-{[1-oxo-7-(1H-pyrrolo[2,3-b]pyridin-3-yl)-1,2-dihydropyrrolo[1,2-a]pyrazin-4-yl]methyl}benzoic acid], for which the pKi was over 8.00.

For `CCOC(=O)c1cccc(Cc2c[nH]c(=O)c3cc(-c4ccncc4)cn23)c1` [Example 4, ethyl 3-{[1-oxo-7-(pyridin-4-yl)-1,2-dihydropyrrolo[1,2-a]pyrazin-4-yl]methyl}benzoate], the pKi was 7.00 to 8.00.

Consider `O=C(O)c1cccc(Cc2c[nH]c(=O)c3cc(-c4c[nH]c5ncccc45)cn23)c1` [Example 5, 3-{[1-oxo-7-(1H-pyrrolo[2,3-b]pyridin-3-yl)-1,2-dihydropyrrolo[1,2-a]pyrazin-4-yl]methyl}benzoic acid], for which the pKi is over 8.00.

Take `CCOC(=O)c1cccc(Cc2c[nH]c(=O)c3cc(-c4c[nH]c5ncccc45)cn23)c1` [Example 6, ethyl 3-{[1-oxo-7-(1H-pyrrolo[2,3-b]pyridin-3-yl)-1,2-dihydropyrrolo[1,2-a]pyrazin-4-yl]methyl}benzoate]: the pKi was over 8.00.

In the case of `O=C(O)c1cccc(Cc2c[nH]c(=O)c3cc(-c4ccncc4)cn23)c1` [Example 7, 3-{[1-oxo-7-(pyridin-4-yl)-1,2-dihydropyrrolo[1,2-a]pyrazin-4-yl]methyl}benzoic acid], the pKi was 7.00 to 8.00.

As to `CCOC(=O)c1cccc(Cc2c[nH]c(=O)c3cc(-c4cccnc4)cn23)c1` [Example 8, ethyl 3-{[1-oxo-7-(pyridin-3-yl)-1,2-dihydropyrrolo[1,2-a]pyrazin-4-yl]methyl}benzoate], the pKi was under 7.00.

For the molecule `CCOC(=O)c1cccc(Cc2c[nH]c(=O)c3cc(-c4cn[nH]c4)cn23)c1` [Example 9, ethyl 3-{[1-oxo-7-(1H-pyrazol-4-yl)-1,2-dihydropyrrolo[1,2-a]pyrazin-4-yl]methyl}benzoate], the pKi was over 8.00.

For the molecule `NC(=O)c1cccc(Cc2c[nH]c(=O)c3cc(-c4c[nH]c5ncccc45)cn23)c1` [Example 10, 3-{[1-oxo-7-(1H-pyrrolo[2,3-b]pyridin-3-yl)-1,2-dihydropyrrolo[1,2-a]pyrazin-4-yl]methyl}benzamide], the pKi is over 8.00.

Regarding `O=C(O)c1cccc(Cc2c[nH]c(=O)c3cc(-c4c[nH]c5nccnc45)cn23)c1` [Example 11, 3-{[1-oxo-7-(5H-pyrrolo[2,3-b]pyrazin-7-yl)-1,2-dihydropyrrolo[1,2-a]pyrazin-4-yl]methyl}benzoic acid], the pKi is over 8.00.

Consider `CCOC(=O)c1cccc(Cc2c[nH]c(=O)c3cc(-c4c[nH]c5nccnc45)cn23)c1` [Example 12, ethyl 3-{[1-oxo-7-(5H-pyrrolo[2,3-b]pyrazin-7-yl)-1,2-dihydropyrrolo[1,2-a]pyrazin-4-yl]methyl}benzoate], for which the pKi was over 8.00.

With `NC(=O)c1cccc(Cc2c[nH]c(=O)c3cc(-c4cn[nH]c4)cn23)c1` [Example 13, 3-{[1-oxo-7-(1H-pyrazol-4-yl)-1,2-dihydropyrrolo[1,2-a]pyrazin-4-yl]methyl}benzamide], the pKi was over 8.00.

As to `O=c1[nH]cc(Cc2cccc([N+](=O)[O-])c2)n2cc(-c3c[nH]c4ncccc34)cc12` [Example 14, 4-(3-nitrobenzyl)-7-(1H-pyrrolo[2,3-b]pyridin-3-yl)pyrrolo[1,2-a]pyrazin-1(2H)-one], the pKi was over 8.00.

With `O=C(c1ccc([N+](=O)[O-])cc1)c1c[nH]c(=O)c2cc(-c3c[nH]c4ncccc34)cn12` [Example 15, 4-(4-nitrobenzoyl)-7-(1H-pyrrolo[2,3-b]pyridin-3-yl)pyrrolo[1,2-a]pyrazin-1(2H)-one], the pKi is over 8.00.

As to `N#Cc1ccc(Cc2c[nH]c(=O)c3cc(-c4c[nH]c5ncccc45)cn23)cc1` [Example 16, 4-{[1-oxo-7-(1H-pyrrolo[2,3-b]pyridin-3-yl)-1,2-dihydropyrrolo[1,2-a]pyrazin-4-yl]methyl}benzonitrile], the pKi is over 8.00.

Take `O=C(Nc1ccc(Cc2c[nH]c(=O)c3cc(-c4c[nH]c5ncccc45)cn23)cc1)c1ccncc1` [Example 17, N-(4-{[1-oxo-7-(1H-pyrrolo[2,3-b]pyridin-3-yl)-1,2-dihydropyrrolo[1,2-a]pyrazin-4-yl]methyl}phenyl)isonicotinamide]: the pKi was over 8.00.

Consider `O=C(Nc1ccc(Cc2c[nH]c(=O)c3cc(-c4c[nH]c5ncccc45)cn23)cc1)C1CCC1` [Example 18, N-(4-{[1-oxo-7-(1H-pyrrolo[2,3-b]pyridin-3-yl)-1,2-dihydropyrrolo[1,2-a]pyrazin-4-yl]methyl}phenyl)cyclobutanecarboxamide], for which the pKi is over 8.00.

In the case of `CN(c1cccc(Cc2c[nH]c(=O)c3cc(-c4c[nH]c5ncccc45)cn23)c1)C1CCC1` [Example 19, 4-{3-[cyclobutyl(methyl)amino]benzyl}-7-(1H-pyrrolo[2,3-b]pyridin-3-yl)pyrrolo[1,2-a]pyrazin-1(2H)-one], the negative logarithm of the Ki (pKi) was 7.00 to 8.00.

`O=C(Nc1ccc(Cc2c[nH]c(=O)c3cc(-c4c[nH]c5ncccc45)cn23)cc1)C1CC1` [Example 20, N-(4-{[1-oxo-7-(1H-pyrrolo[2,3-b]pyridin-3-yl)-1,2-dihydropyrrolo[1,2-a]pyrazin-4-yl]methyl}phenyl)cyclopropanecarboxamide]: the pKi is over 8.00.

In the case of `CS(=O)(=O)Nc1cccc(Cc2c[nH]c(=O)c3cc(-c4c[nH]c5ncccc45)cn23)c1` [Example 21, N-(3-{[1-oxo-7-(1H-pyrrolo[2,3-b]pyridin-3-yl)-1,2-dihydropyrrolo[1,2-a]pyrazin-4-yl]methyl}phenyl)methanesulfonamide], the pKi is over 8.00.

With `Nc1cccc(Cc2c[nH]c(=O)c3cc(-c4c[nH]c5ncccc45)cn23)c1` [Example 22, 4-(3-aminobenzyl)-7-(1H-pyrrolo[2,3-b]pyridin-3-yl)pyrrolo[1,2-a]pyrazin-1(2H)-one], the pKi is over 8.00.

On to `Nc1ccc(Cc2c[nH]c(=O)c3cc(-c4c[nH]c5ncccc45)cn23)cc1` [Example 23, 4-(4-aminobenzyl)-7-(1H-pyrrolo[2,3-b]pyridin-3-yl)pyrrolo[1,2-a]pyrazin-1(2H)-one], for which the pKi was over 8.00.

As for `O=c1[nH]cc(Cc2ccc(NCc3ccccn3)cc2)n2cc(-c3c[nH]c4ncccc34)cc12` [Example 24, 4-{4-[(pyridin-2-ylmethyl)amino]benzyl}-7-(1H-pyrrolo[2,3-b]pyridin-3-yl)pyrrolo[1,2-a]pyrazin-1(2H)-one], the pKi was over 8.00.

For `O=c1[nH]cc(Cc2ccc(CNC3CCC3)cc2)n2cc(-c3c[nH]c4ncccc34)cc12` [Example 25, 4-{4-[(cyclobutylamino)methyl]benzyl}-7-(1H-pyrrolo[2,3-b]pyridin-3-yl)pyrrolo[1,2-a]pyrazin-1(2H)-one], the pKi was over 8.00.

For the molecule `O=C(Nc1ccc(Cc2c[nH]c(=O)c3cc(-c4c[nH]c5ncccc45)cn23)cc1)c1ccco1` [Example 26, N-(4-{[1-oxo-7-(1H-pyrrolo[2,3-b]pyridin-3-yl)-1,2-dihydropyrrolo[1,2-a]pyrazin-4-yl]methyl}phenyl)-2-furamide], the pKi was over 8.00.

For the molecule `O=c1[nH]cc(Cc2cccc(N(C3CCC3)C3CCC3)c2)n2cc(-c3c[nH]c4ncccc34)cc12` [Example 27, 4-[3-(dicyclobutylamino)benzyl]-7-(1H-pyrrolo[2,3-b]pyridin-3-yl)pyrrolo[1,2-a]pyrazin-1(2H)-one], the pKi is 7.00 to 8.00.

Regarding `O=C(Nc1ccc(Cc2c[nH]c(=O)c3cc(-c4c[nH]c5ncccc45)cn23)cc1)c1cccnc1` [Example 28, N-(4-{[1-oxo-7-(1H-pyrrolo[2,3-b]pyridin-3-yl)-1,2-dihydropyrrolo[1,2-a]pyrazin-4-yl]methyl}phenyl)nicotinamide], the pKi was over 8.00.

With `O=c1[nH]cc(Cc2ccc(CNS(=O)(=O)C3CC3)cc2)n2cc(-c3c[nH]c4ncccc34)cc12` [Example 29, N-(4-{[1-oxo-7-(1H-pyrrolo[2,3-b]pyridin-3-yl)-1,2-dihydropyrrolo[1,2-a]pyrazin-4-yl]methyl}benzyl)cyclopropanesulfonamide], the pKi is over 8.00.

`O=c1[nH]cc(Cc2ccc(CN(C3CCC3)C3CCC3)cc2)n2cc(-c3c[nH]c4ncccc34)cc12` [Example 30, 4-{4-[(dicyclobutylamino)methyl]benzyl}-7-(1H-pyrrolo[2,3-b]pyridin-3-yl)pyrrolo[1,2-a]pyrazin-1(2H)-one]: the pKi is 7.00 to 8.00.
